# Assay results from patent publication US9751858B2, “3-heteroaroylamino-propionic acid derivatives and their use as pharmaceuticals” (SANOFI, priority 2011, dated 2017).
# pIC50: −log10 of the molar value.
# Biological target: T1, Recombinant human cathepsin A (Homo sapiens, UniProt P10619)
# T1 construct: Recombinant human cathepsin A (residues 29-480, with a C-terminal 10-His tag); 10-His (C); purchased R&D Systems 1049-SE
# T1 sequence (P10619 29-326 limits assumed): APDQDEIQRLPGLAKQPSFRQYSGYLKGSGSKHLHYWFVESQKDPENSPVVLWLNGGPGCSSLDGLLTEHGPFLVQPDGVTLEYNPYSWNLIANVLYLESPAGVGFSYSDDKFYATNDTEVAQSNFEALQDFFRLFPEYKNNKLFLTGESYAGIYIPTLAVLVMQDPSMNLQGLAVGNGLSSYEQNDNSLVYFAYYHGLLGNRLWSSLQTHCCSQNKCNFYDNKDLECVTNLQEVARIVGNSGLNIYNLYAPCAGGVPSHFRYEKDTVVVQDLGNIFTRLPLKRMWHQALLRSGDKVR
# T1 sequence (P10619 327-480 limits assumed): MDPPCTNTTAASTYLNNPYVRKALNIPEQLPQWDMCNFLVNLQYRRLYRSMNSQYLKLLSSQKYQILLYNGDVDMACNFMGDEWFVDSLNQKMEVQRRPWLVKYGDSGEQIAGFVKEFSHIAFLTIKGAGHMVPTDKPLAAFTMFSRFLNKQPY
# Assay: Cathepsin A inhibitory activity
# Type: biochemical
# Settings: activated recombinant human cathepsin A 833 ng/ml, Bodipy FL-labeled bradykinin 2 μM, pH 5.5, 15 min room temperature
# Description: a) Cathepsin a Inhibitory Activity
# Briefly, cathepsin A was incubated at 10 μg/ml with cathepsin L at 1 μg/ml in activation buffer (25 mM 2-(morpholin-4-yl)-ethanesulfonic acid (MES), pH 6.0, containing 5 mM dithiothreitol (DTT)) for 15 min at 37° C.
# The activated cathepsin A was diluted in assay buffer (25 mM MES, pH 5.5, containing 5 mM DTT) and mixed with the test compound (dissolved in assay buffer containing (v/v) 3% DMSO) or, in the control experiments, with the vehicle in a multiple assay plate. After incubation for 15 min at room temperature, as substrate then bradykinin carrying an N-terminal ®Bodipy FL (4,4-difluoro-5,7-dimethyl-4-bora-3a,4a-diaza-s-indacene-3-propionyl) label (JPT Peptide Technologies GmbH; dissolved in assay buffer) was added to the mixture. […] After incubation for 15 min at room temperature the reaction was stopped by the addition of stop buffer (130 mM 2-(4-(2-hydroxy-ethyl)-piperazin-1-yl)-ethanesulfonic acid, pH 7.4, containing (v/v) 0.013%® Triton X-100, 0.13% Coating Reagent 3 (Caliper Life Sciences), 6.5% DMSO and 20 μM ebelactone B (Sigma, # E0886)).
# Uncleaved substrate and product were then separated by a microfluidic capillary electrophoresis on a LabChip® 3000 Drug Discovery System (12-Sipper-Chip; Caliper Life Sciences) and quantified by determination of the respective peak areas. Substrate turnover was calculated by dividing product peak area by the sum of substrate and product peak areas, and the enzyme activity and the inhibitory effect of the test compound thus quantified.
row,Structure (SMILES),pIC50
1,"CC(C)c1oc(-c2ccccc2)nc1C(=O)NC(CC(=O)O)C1CCCCC1 (stereo not drawn) [Example 34, 3-Cyclohexyl-3-[(5-isopropyl-2-phenyl-oxazole-4-carbonyl)-amino]-propionic acid]",5.83
2,"Cc1oc(-c2ccccc2F)nc1C(=O)N[C@@H](CC(=O)O)c1ccccc1F [Example 35, (S)-3-(2-Fluoro-phenyl)-3-{[2-(2-fluoro-phenyl)-5-methyl-oxazole-4-carbonyl]-amino}-propionic acid]",5.29
3,"Cc1oc(-c2ccccc2F)nc1C(=O)N[C@@H](CC(=O)O)c1cccc(F)c1 [Example 36, (S)-3-(3-Fluoro-phenyl)-3-{[2-(2-fluoro-phenyl)-5-methyl-oxazole-4-carbonyl]-amino}-propionic acid]",6.70
4,"Cc1oc(-c2ccccc2F)nc1C(=O)N[C@@H](CC(=O)O)c1ccc(F)cc1 [Example 37, (S)-3-(4-Fluoro-phenyl)-3-{[2-(2-fluoro-phenyl)-5-methyl-oxazole-4-carbonyl]-amino}-propionic acid]",5.38
5,"Cc1ccc([C@H](CC(=O)O)NC(=O)c2noc(-c3cccc(F)c3F)n2)cc1 [Example 38, (S)-3-{[5-(2,3-Difluoro-phenyl)-[1,2,4]oxadiazole-3-carbonyl]-amino}-3-p-tolyl-propionic acid]",5.22
6,"Cc1cccc([C@H](CC(=O)O)NC(=O)c2noc(-c3cccc(F)c3F)n2)c1 [Example 39, (S)-3-{[5-(2,3-Difluoro-phenyl)-[1,2,4]oxadiazole-3-carbonyl]-amino}-3-m-tolyl-propionic acid]",5.03
7,"C[C@@](CC(=O)O)(NC(=O)c1noc(-c2cccc(F)c2F)n1)c1ccccc1 [Example 40, (S)-3-{[5-(2,3-Difluoro-phenyl)-[1,2,4]oxadiazole-3-carbonyl]-amino}-3-phenyl-butyric acid]",5.71

# Now from value to molecule:
row,pIC50,Structure (SMILES)
1,4.87,"O=C(O)C[C@@H](Cc1ccccc1)NC(=O)c1noc(-c2cccc(F)c2F)n1 [Example 41, (R)-3-{[5-(2,3-Difluoro-phenyl)-[1,2,4]oxadiazole-3-carbonyl]-amino}-4-phenyl-butyric acid]"
2,< 5.00,"Cc1ccccc1[C@H](CC(=O)O)NC(=O)c1noc(-c2cccc(F)c2F)n1 [Example 42, (S)-3-{[5-(2,3-Difluoro-phenyl)-[1,2,4]oxadiazole-3-carbonyl]-amino}-3-o-tolyl-propionic acid]"
3,6.97,"O=C(O)C[C@H](NC(=O)c1noc(-c2cccc(F)c2F)n1)c1ccccc1F [Example 43, (S)-3-{[5-(2,3-Difluoro-phenyl)-[1,2,4]oxadiazole-3-carbonyl]-amino}-3-(2-fluoro-phenyl)-propionic acid]"
4,5.27,"O=C(O)C[C@H](NC(=O)c1noc(-c2cccc(F)c2F)n1)c1ccc(F)cc1 [Example 44, (S)-3-{[5-(2,3-Difluoro-phenyl)-[1,2,4]oxadiazole-3-carbonyl]-amino}-3-(4-fluoro-phenyl)-propionic acid]"
5,5.05,"CC(C)c1oc(-c2ccccc2)nc1C(=O)NC(CC(=O)O)Cc1ccccc1 (stereo not drawn) [Example 45, 3-[(5-Isopropyl-2-phenyl-oxazole-4-carbonyl)-amino]-4-phenyl-butyric acid]"
6,< 5.00,"Cc1ccccc1[C@H](CC(=O)O)NC(=O)c1cc(S(=O)(=O)N(C)C)oc1C [Example 46, (S)-3-[(5-Dimethylsulfamoyl-2-methyl-furan-3-carbonyl)-amino]-3-o-tolyl-propionic acid]"
7,5.66,"CC(C)c1oc(-c2ccccc2)nc1C(=O)N[C@@H](CC(=O)O)c1ccccc1F [Example 47, (S)-3-(2-Fluoro-phenyl)-3-[(5-isopropyl-2-phenyl-oxazole-4-carbonyl)-amino]-propionic acid]"
8,5.74,"CC(C)c1oc(-c2ccccc2)nc1C(=O)N[C@@H](CC(=O)O)c1ccc(F)cc1 [Example 48, (S)-3-(4-Fluoro-phenyl)-3-[(5-isopropyl-2-phenyl-oxazole-4-carbonyl)-amino]-propionic acid]"
